From ChEMBL document CHEMBL3600302, “A Ligand-Based Drug Design. Discovery of 4-Trifluoromethyl-7,8-pyranocoumarin as a Selective Inhibitor of Human Cytochrome P450 1A2” (J Med Chem, 2015) come the findings set out here.

This series deals with T1, Cytochrome P450 1A2 (Homo sapiens, UniProt P05177).
T1 sequence (P05177 whole entry): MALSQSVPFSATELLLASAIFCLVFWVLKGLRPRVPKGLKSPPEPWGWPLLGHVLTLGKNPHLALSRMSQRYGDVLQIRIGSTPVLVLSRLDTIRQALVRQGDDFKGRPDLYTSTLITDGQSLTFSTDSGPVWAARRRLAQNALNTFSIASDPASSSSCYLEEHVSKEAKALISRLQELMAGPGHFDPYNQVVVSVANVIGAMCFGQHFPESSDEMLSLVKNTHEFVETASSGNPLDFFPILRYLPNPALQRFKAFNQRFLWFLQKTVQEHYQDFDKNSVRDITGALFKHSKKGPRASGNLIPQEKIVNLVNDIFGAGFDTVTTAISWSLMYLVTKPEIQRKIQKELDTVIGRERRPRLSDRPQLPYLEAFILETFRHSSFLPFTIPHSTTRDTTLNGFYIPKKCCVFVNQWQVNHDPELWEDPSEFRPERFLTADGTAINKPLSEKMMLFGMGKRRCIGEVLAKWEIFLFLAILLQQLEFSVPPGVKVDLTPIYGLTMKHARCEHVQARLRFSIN
The experiment in a line: Inhibition of human microsomal CYP1A2-dependent methoxyresorufin-O-demethylase activity at 10 nM measured over 6 mins by spectrofluorimetric analysis in absence of NADPH regenerating solution. To be noted: 0.1 h, 0.01 µM.

As to `Cc1cc2c(ccc3c(=O)cc(-c4ccccc4)oc32)o1`, the “inhibition (INH)” value was “Active”.
